In patent US20250296959A1, “B7-H3 TARGETING PEPTIDES AND CONSTRUCTS THEREOF” (Mariana Oncology Inc., priority 2024, published 2025):
Starred links: 1 amine or outer side, 2 acyl side, 3 side chain; linkers in the order of their positions; H or OH if unused. Positions of bridges follow the written chain, without caps; N, C: chain ends. Non-standard residues stand in square brackets, D forms with d. Residues, ends and D or L forms follow the SMILES beside them. Groups on a side chain read outwards from the residue. *: point of attachment. X6 = CSCC[C@H](NC(=O)c1ccc(CNC(=O)CN2CCN(CC(=O)O)CCN(CC(=O)O)CCN(CC(=O)O)CC2)cc1)C(=O)N[C@H](C(=O)N[C@@H](CCCCN*)C(=O)O)C(C)C; Ala(piperidin-4-yl) = O=C([C@H](CC1CCN([*:3])CC1)N[*:1])[*:2]; Phe(3-CH2NH2) = O=C([C@H](Cc1cccc(CN[*:3])c1)N[*:1])[*:2]; DOTA = O=C(O)CN1CCN(CC(=O)O)CCN(CC(=O)*)CCN(CC(=O)O)CC1; Trp(5-F) = N[C@@H](Cc1c[nH]c2ccc(F)cc12)C(=O)O; Pro(cis-4-F) = O=C(O)[C@@H]1C[C@H](F)CN1; γGlu = O=C(O)[C@H](CCC(=O)[*:2])N[*:1]; 1Nal = N[C@@H](Cc1cccc2ccccc12)C(=O)O; Ala(4-THP) = N[C@@H](CC1CCOCC1)C(=O)O; Phe(2-Me) = Cc1ccccc1C[C@H](N)C(=O)O; Val(3-OH) = CC(C)(O)[C@H](N)C(=O)O; 4Pal = N[C@@H](Cc1ccncc1)C(=O)O; Gly(cPr) = N[C@H](C(=O)O)C1CC1; Chg = N[C@H](C(=O)O)C1CCCCC1; PEG4 = NCCOCCOCCOCCOCCC(=O)O; Tle = CC(C)(C)[C@H](N)C(=O)O; hLeu = CC(C)CC[C@H](N)C(=O)O; Nle = CCCC[C@H](N)C(=O)O; Aze = O=C(O)[C@@H]1CCN1

These compounds were tested against T1, human 4lg B7-H3 (Homo sapiens, UniProt Q5ZPR3) (assay: Affinity determination by surface plasmon resonance (SPR) to 4Ig B7-H3). Conditions: SPR KD—25° C., 4Ig B7-H3; 25° C. flow cell temperature.
T1 sequence (Q5ZPR3 29-534): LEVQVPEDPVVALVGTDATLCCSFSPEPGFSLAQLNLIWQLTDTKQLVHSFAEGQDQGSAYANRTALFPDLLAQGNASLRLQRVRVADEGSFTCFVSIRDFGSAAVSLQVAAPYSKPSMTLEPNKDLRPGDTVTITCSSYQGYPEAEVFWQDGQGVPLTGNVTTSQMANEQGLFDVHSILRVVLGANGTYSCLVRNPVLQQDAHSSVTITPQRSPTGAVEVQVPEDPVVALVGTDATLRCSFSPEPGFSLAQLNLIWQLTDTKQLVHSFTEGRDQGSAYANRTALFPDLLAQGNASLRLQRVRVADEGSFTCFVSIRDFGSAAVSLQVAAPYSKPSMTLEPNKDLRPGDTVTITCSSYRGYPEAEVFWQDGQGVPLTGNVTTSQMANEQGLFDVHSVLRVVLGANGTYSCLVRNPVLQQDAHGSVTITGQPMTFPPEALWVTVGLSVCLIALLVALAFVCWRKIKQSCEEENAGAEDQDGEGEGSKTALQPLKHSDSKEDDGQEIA

`CC(=O)N[C@@H](CCC(C)C)C(=O)N[C@@H](Cc1ccc(O)cc1)C(=O)N[C@H]1CSSC[C@@H](C(=O)N[C@@H](Cc2c[nH]c3ccc(F)cc23)C(=O)N[C@@H](Cc2ccccc2)C(=O)N[C@H](C(=O)N[C@H](CCCCNC(=O)CN2CCN(CC(=O)O)CCN(CC(=O)O)CCN(CC(=O)O)CC2)C(N)=O)[C@@H](C)O)NC(=O)[C@H](Cc2ccc(O)cc2)NC(=O)[C@H](C2CCCCC2)NC(=O)[C@H](CC(=O)O)NC(=O)[C@H](Cc2ccc(O)cc2)NC(=O)[C@H](CCCCN)NC(=O)CNC(=O)[C@H](C(C)(C)C)NC1=O` [compound 181, Ac-hLeu-Y-C-Tbg-G-K-Y-D-Chg-Y-C-5FW-F-Thr-dLys(DOTA)-CONH2] (Ac-[hLeu]YC[Tle]GKYD[Chg]YC[Trp(5-F)]FT[dK](DOTA)-NH2; disulfide 3-11) and `CC(=O)N[C@@H](CCC(C)C)C(=O)N[C@@H](Cc1ccc(O)cc1)C(=O)N[C@H]1CSSC[C@@H](C(=O)N[C@@H](Cc2c[nH]c3ccccc23)C(=O)N[C@@H](Cc2ccccc2)C(=O)N[C@H](C(=O)N[C@H](CCCCNC(=O)CN2CCN(CC(=O)O)CCN(CC(=O)O)CCN(CC(=O)O)CC2)C(N)=O)[C@@H](C)O)NC(=O)[C@H](Cc2ccc(O)cc2)NC(=O)[C@H](C2CC2)NC(=O)[C@H](CC(=O)O)NC(=O)[C@H](Cc2ccc(O)cc2)NC(=O)[C@H](CCCCN)NC(=O)CNC(=O)[C@H](C(C)C)NC1=O` [compound 123, Ac-hLeu-Y-C-V-G-K-Y-D-Cpg-Y-C-W-F-Thr-dLys(DOTA)-CONH2] (Ac-[hLeu]YCVGKYD[Gly(cPr)]YCWFT[dK](DOTA)-NH2; disulfide 3-11) fall in the same range of Kd: 1 to 10 nM for the first, 1 to 10 nM for the second.

Compared with `CCCC[C@H](NC(C)=O)C(=O)N[C@@H](Cc1ccc(O)cc1)C(=O)N[C@H]1CSSC[C@@H](C(=O)N[C@@H](Cc2c[nH]c3ccccc23)C(=O)N[C@@H](Cc2ccccc2)C(=O)N[C@H](C(=O)N[C@H](CCCCNC(=O)CN2CCN(CC(=O)O)CCN(CC(=O)O)CCN(CC(=O)O)CC2)C(N)=O)[C@@H](C)O)NC(=O)[C@H](Cc2ccc(O)cc2)NC(=O)[C@H](C(C)C)NC(=O)[C@H](CO)NC(=O)[C@H](Cc2ccc(O)cc2)NC(=O)[C@H](CCCCN)NC(=O)CNC(=O)[C@H](C(C)C)NC1=O` [compound 81, Ac-Nle-Y-C-V-G-K-Y-S-V-Y-C-W-F-Thr-dLys(DOTA)-CONH2] (Ac-[Nle]YCVGKYSVYCWFT[dK](DOTA)-NH2; disulfide 3-11), `CC(=O)N[C@@H](CCC(C)C)C(=O)N[C@@H](Cc1ccc(O)cc1)C(=O)N[C@H]1CSSC[C@@H](C(=O)N[C@@H](Cc2c[nH]c3ccccc23)C(=O)N[C@@H](Cc2ccccc2)C(=O)N[C@H](C(=O)N[C@H](CCCCNC(=O)CN2CCN(CC(=O)O)CCN(CC(=O)O)CCN(CC(=O)O)CC2)C(N)=O)[C@@H](C)O)NC(=O)[C@H](Cc2ccc(O)cc2)NC(=O)[C@H](C(C)C)NC(=O)[C@H](CC(=O)O)NC(=O)[C@H](Cc2ccc(O)cc2)NC(=O)[C@H](CCCCN)NC(=O)CNC(=O)[C@H](C(C)C)NC1=O` [Cpd #67, Ac-hLeu-Y-C-V-G-K-Y-D-V-Y-C-W-F-Thr-dLys(DOTA)-CONH2] (Ac-[hLeu]YCVGKYDVYCWFT[dK](DOTA)-NH2; disulfide 3-11) is lower in Kd: 100 to 300 nM for the first, 1 to 10 nM for the second.

First: CCCC[C@H](NC(C)=O)C(=O)N[C@@H](Cc1ccc(O)cc1)C(=O)N[C@H]1CSSC[C@@H](C(=O)N[C@@H](Cc2c[nH]c3ccccc23)C(=O)N[C@@H](Cc2ccccc2)C(=O)N[C@H](C(=O)N[C@H](CCCCNC(=O)CN2CCN(CC(=O)O)CCN(CC(=O)O)CCN(CC(=O)O)CC2)C(N)=O)[C@@H](C)O)NC(=O)[C@H](Cc2ccc(O)cc2)NC(=O)[C@H](C(C)C)NC(=O)[C@H](CC(=O)O)NC(=O)[C@H](Cc2ccc(O)cc2)NC(=O)[C@H](Cc2ccncc2)NC(=O)CNC(=O)[C@H](C(C)C)NC1=O [compound 79, Ac-Nle-Y-C-V-G-4PyA-Y-D-V-Y-C-W-F-Thr-dLys(DOTA)-CONH2] (Ac-[Nle]YCVG[4Pal]YDVYCWFT[dK](DOTA)-NH2; disulfide 3-11)
Second: CC(=O)N[C@@H](CCC(C)C)C(=O)N[C@@H](Cc1ccc(O)cc1)C(=O)N[C@H]1CSSC[C@@H](C(=O)N[C@@H](Cc2c[nH]c3ccc(F)cc23)C(=O)N[C@@H](Cc2ccccc2C)C(=O)N[C@H](C(=O)N[C@H](CCCCNC(=O)CN2CCN(CC(=O)O)CCN(CC(=O)O)CCN(CC(=O)O)CC2)C(N)=O)[C@@H](C)O)NC(=O)[C@H](Cc2ccc(O)cc2)NC(=O)[C@H](C(C)C)NC(=O)[C@H](CC(=O)O)NC(=O)[C@H](Cc2ccc(O)cc2)NC(=O)[C@H](CCCCN)NC(=O)CNC(=O)[C@H](C(C)C)NC1=O [compound 165, Ac-hLeu-Y-C-V-G-K-Y-D-V-Y-C-5FW-2MePhe-Thr-dLys(DOTA)-CONH2] (Ac-[hLeu]YCVGKYDVYC[Trp(5-F)][Phe(2-Me)]T[dK](DOTA)-NH2; disulfide 3-11)
The Kd of the first is higher: 10 to 100 nM for the first, 1 to 10 nM for the second.

First: CC(=O)N[C@@H](CCC(C)C)C(=O)N[C@@H](Cc1ccc(O)cc1)C(=O)N[C@H]1CSSC[C@@H](C(=O)N[C@@H](Cc2cccc3ccccc23)C(=O)N[C@@H](Cc2ccccc2)C(=O)N2C[C@@H](F)C[C@H]2C(=O)O)NC(=O)[C@H](Cc2ccc(O)cc2)NC(=O)[C@H](C(C)C)NC(=O)[C@H](CC(=O)O)NC(=O)[C@H](Cc2ccncc2)NC(=O)[C@H](CCCCNC(=O)CN2CCN(CC(=O)O)CCN(CC(=O)O)CCN(CC(=O)O)CC2)NC(=O)CNC(=O)[C@H](C(C)(C)C)NC1=O [compound 263, Ac-hLeu-Y-C-Tbg-G-Lys(DOTA)-4PyA-D-V-Y-C-1Nal-F-cis4FPro-CONH2] (Ac-[hLeu]YC[Tle]GK(DOTA)[4Pal]DVYC[1Nal]F[Pro(cis-4-F)]-OH; disulfide 3-11)
Second: CC(=O)N[C@@H](CCC(C)C)C(=O)N[C@@H](Cc1ccc(O)cc1)C(=O)N[C@H]1CSSC[C@@H](C(=O)N[C@@H](Cc2cccc3ccccc23)C(=O)N[C@@H](Cc2ccccc2)C(=O)N2CCC[C@H]2C(N)=O)NC(=O)[C@H](Cc2ccc(O)cc2)NC(=O)[C@H](C(C)C)NC(=O)[C@H](CC(=O)O)NC(=O)[C@H](Cc2cccc(CNC(=O)CC[C@H](NC(=O)CC[C@H](NC(=O)CN3CCN(CC(=O)O)CCN(CC(=O)O)CCN(CC(=O)O)CC3)C(=O)O)C(=O)O)c2)NC(=O)[C@H](CCCCN)NC(=O)CNC(=O)[C@H](C(C)(C)C)NC1=O [compound 255, Ac-hLeu-Y-C-Tbg-G-K-MAF(gE-gE-DOTA)-D-V-Y-C-1Nal-F-Pro-CONH2] (Ac-[hLeu]YC[Tle]GK[Phe(3-CH2NH2)]([γGlu-γGlu-DOTA])DVYC[1Nal]FP-NH2; disulfide 3-11)
The Kd of the first is higher: 10 to 100 nM for the first, 1 to 10 nM for the second.

Same assay, conditions: SPR KD—37° C., 4Ig B7-H3; 37° C. flow cell temperature

Compared with `CC(=O)N[C@@H](CCC(C)C)C(=O)N[C@@H](Cc1ccc(O)cc1)C(=O)N[C@H]1CSSC[C@@H](C(=O)N[C@@H](Cc2cccc3ccccc23)C(=O)N[C@@H](Cc2ccccc2)C(=O)N[C@H](C(=O)N[C@H](CCC(=O)O)C(N)=O)C(C)(C)O)NC(=O)[C@H](Cc2ccc(O)cc2)NC(=O)[C@H](C(C)C)NC(=O)[C@H](CC(=O)O)NC(=O)[C@H](CC2CCN(C(=O)CCOCCOCCOCCOCCNC(=O)CN3CCN(CC(=O)O)CCN(CC(=O)O)CCN(CC(=O)O)CC3)CC2)NC(=O)[C@H](CC2CCNCC2)NC(=O)CNC(=O)[C@H](C(C)(C)C)NC1=O` [compound 454, Ac-hLeu-Y-C-Tbg-G-PipAla-Pip(PEG4-DOTA)Ala-D-V-Y-C-1Nal-F-hydroxyVal-dGlu-CONH2] (Ac-[hLeu]YC[Tle]G[Ala(piperidin-4-yl)][Ala(piperidin-4-yl)]([PEG4-DOTA])DVYC[1Nal]F[Val(3-OH)][dE]-NH2; disulfide 3-11), `CSCC[C@H](NC(=O)c1ccc(CNC(=O)CN2CCN(CC(=O)O)CCN(CC(=O)O)CCN(CC(=O)O)CC2)cc1)C(=O)N[C@H](C(=O)N[C@@H](CCCCNC(=O)[C@@H](NC(=O)[C@H](Cc1ccccc1)NC(=O)[C@H](Cc1c[nH]c2ccc(F)cc12)NC(=O)[C@@H]1CSSC[C@H](NC(=O)[C@H](Cc2ccc(O)cc2)NC(=O)[C@H](CCC(C)C)NC(C)=O)C(=O)N[C@@H](C(C)(C)C)C(=O)NCC(=O)N[C@@H](CC2CCNCC2)C(=O)N[C@@H](CC2CCOCC2)C(=O)N[C@@H](CC(=O)O)C(=O)N[C@@H](C(C)C)C(=O)N[C@@H](Cc2ccc(O)cc2)C(=O)N1)C(C)(C)O)C(=O)O)C(C)C` [Cpd #482, Ac-hLeu-Y-C-Tbg-G-PipAla-ThpA-D-V-Y-C-5FW-F-hydroxyVal-εLys(Val-Met-AmBz-DOTA)-COOH] (Ac-[hLeu]YC[Tle]G[Ala(piperidin-4-yl)][Ala(4-THP)]DVYC[Trp(5-F)]F[Val(3-OH)]-X6; disulfide 3-11) is higher in Kd: less than 1 nM for the first, 1 to 10 nM for the second. The first binds more tightly here.

`CC(=O)N[C@@H](CCC(C)C)C(=O)N[C@@H](Cc1ccc(O)cc1)C(=O)N[C@H]1CSSC[C@@H](C(=O)N[C@@H](Cc2c[nH]c3ccc(F)cc23)C(=O)N[C@@H](Cc2ccccc2)C(=O)N[C@H](C(=O)N[C@H](CCCCNC(=O)CN2CCN(CC(=O)O)CCN(CC(=O)O)CCN(CC(=O)O)CC2)C(=O)O)C(C)(C)O)NC(=O)[C@H](Cc2ccc(O)cc2)NC(=O)[C@H](C(C)C)NC(=O)[C@H](CC(=O)O)NC(=O)[C@H](CC2CCOCC2)NC(=O)[C@@H]2CCN2C(=O)CNC(=O)[C@H](C(C)(C)C)NC1=O` [compound 375, Ac-hLeu-Y-C-Tbg-G-Aze-ThpA-D-V-Y-C-5FW-F-hydroxyVal-dLys(DOTA)-COOH] (Ac-[hLeu]YC[Tle]G[Aze][Ala(4-THP)]DVYC[Trp(5-F)]F[Val(3-OH)][dK](DOTA)-OH; disulfide 3-11) was tested, and the Kd was 1 to 10 nM.
